Assay [1] deals with streptozotocin induced diabetic rat. The assay can be described thus: Biological activity of purified adipocyte insulin on streptozotocin induced diabetic rat. In kind it is in vivo. On the procedure:
FIG. 5. Determination of biological activity of purified adipocyte insulin on streptozotocin induced diabetic rat. (a) The male Sprague Dawley rats of 100–150 g weight were selected for streptozotocin (STZ) treatment. […] (A) STZ untreated rats, only vehicle (0.9% saline) injected (n-6), (B) STZ rat, vehicle injected (n-6), (C) STZ rat injected with AdpInsl 10 μg/100 g body wt of rat (n-6). (D) STZ rat injected with 10 ug/100 g body wt of rat (n=6J porcine insulin. Each value is ±SEM of 6 observations. p<0.001 when C is compared with B,**p<0.05 when C is compared with D.
Insulin injection-Adipocyte IR-insulin (20 ug per 100 gm body weight) from incubation medium or 10 ug AdpInsl or porcine insulin was intraperitoneally injected into the male Sprague Dawley rats weighing between 100–150 g. After 6 hrs of injection blood was collected by retroorbital puncture using capillary tube, centrifuged to collect plasma and glucose content was determined by glucose-glucose oxidase method.

In the next assay the test system is carp adipocytes. In words: Determination of insulin activity in vitro: D-14C-glucose uptake by adipocytes. In kind it is cell-based, carp Catla catla. The protocol: (b) Effect of AdpInsl and porcine insulin (PI) on glucose uptake by carp adipocytes. Adipocytes 1×10^5 cells/incubation, suspended in MEM containing 1% fetal calf serum and preincubated for 2 hours in the absence of insulin, after addition of D-^14C-glucose uptake was determined by the procedure described under the “Experimental procedures”. *p<0.05 when AdpInsl is compared with porcine insulin.
Determination of insulin activity in vitro—Freshly prepared adipocytes were suspended in the MEM and after 2 h 1.0 microCi of D-(^14C) glucose (final concentration 25 uM| containing was added to the adipocyte incubation. 25 ng/ml of AdpInsl or porcine insulin was added to the incubation and uptake of glucose was measured by following a previously described method (21). Initial rates of glucose uptake was determined from the incubation of adipocyte without insulin. The reaction was stopped at 3 min by washing the cells three times with ice cold MEM in the presence of 0.3 mM phloretin to correct the glucose uptake data from simple diffusion and nonspecific trapping of radioactivity.

“Also recorded” adds a separate entry of the source.

For “AdpInsl: Insulin purified from Catla catla carp adipocytes, A chain SEQ ID No. 1 (21 aa), B chain SEQ ID No. 2 (30 aa) (chain 1 GIVEQCCHKPCSIFELQNYCN; chain 2 PGAPQHLCGSHLVDALYLVCGPTGFFYNPK; listed as Catla catla)”, the “hypoglycemic activity greater than porcine insulin” value in assay [1] (STZ rat, 10 ug/100 g body wt each insulin, p<0.05) was found to be 25%. Also, the hyperglycemia entry in assay [1] (STZ rat, 10 ug/100 g body wt i.p., 6 hrs, p<0.001 compared with control) was “significantly reduced hyperglycemia”. The “hypoglycemic effect compared to porcine insulin” value in assay [1] (streptozotocin induced diabetic rat) is “significantly stronger hypoglycemic effect”. Also, the “increase in glucose uptake by adipocyte” value in the assay with carp adipocytes (25 ng/ml insulin, 1x10^5 cells/incubation, uptake stopped at 3 min) is “more than 2 fold”. In addition, in the assay with carp adipocytes (25 ng/ml of each insulin, p<0.05), the “stimulation of glucose uptake compared with porcine insulin” value was “significantly higher; also recorded: more actively than porcine insulin”.

Values taken from patent publication US7129211B2, “Adipocyte Insulin adpinsl with Insulin A and B chains and an effective method of treating type 2 diabetes in a subject using adipocyte insulin” (Council of Scientific and Industrial Research, priority 2002, dated 2006).
